Like-named read-outs stand apart in the source and are kept apart here.
Columns and labels:
Format in all cases: cell-based
VR1/TRPV1 receptor = VR1/TRPV1 receptor (Homo sapiens, UniProt Q8NER1); experiment: IC50 (human) after pH stimulus
vanilloid receptor (VR1) = target: T1, vanilloid receptor (VR1) (Homo sapiens, UniProt Q8NER1); experiment: FLIPR Ca2+ influx assay on CHO K1 cells transfected with the VR1 gene (pharmacological method II)
T1 construct: expressed in transfected cells; host or cells: CHO K1 cells (ECACC), stably transfected
T1 sequence (Q8NER1 whole entry): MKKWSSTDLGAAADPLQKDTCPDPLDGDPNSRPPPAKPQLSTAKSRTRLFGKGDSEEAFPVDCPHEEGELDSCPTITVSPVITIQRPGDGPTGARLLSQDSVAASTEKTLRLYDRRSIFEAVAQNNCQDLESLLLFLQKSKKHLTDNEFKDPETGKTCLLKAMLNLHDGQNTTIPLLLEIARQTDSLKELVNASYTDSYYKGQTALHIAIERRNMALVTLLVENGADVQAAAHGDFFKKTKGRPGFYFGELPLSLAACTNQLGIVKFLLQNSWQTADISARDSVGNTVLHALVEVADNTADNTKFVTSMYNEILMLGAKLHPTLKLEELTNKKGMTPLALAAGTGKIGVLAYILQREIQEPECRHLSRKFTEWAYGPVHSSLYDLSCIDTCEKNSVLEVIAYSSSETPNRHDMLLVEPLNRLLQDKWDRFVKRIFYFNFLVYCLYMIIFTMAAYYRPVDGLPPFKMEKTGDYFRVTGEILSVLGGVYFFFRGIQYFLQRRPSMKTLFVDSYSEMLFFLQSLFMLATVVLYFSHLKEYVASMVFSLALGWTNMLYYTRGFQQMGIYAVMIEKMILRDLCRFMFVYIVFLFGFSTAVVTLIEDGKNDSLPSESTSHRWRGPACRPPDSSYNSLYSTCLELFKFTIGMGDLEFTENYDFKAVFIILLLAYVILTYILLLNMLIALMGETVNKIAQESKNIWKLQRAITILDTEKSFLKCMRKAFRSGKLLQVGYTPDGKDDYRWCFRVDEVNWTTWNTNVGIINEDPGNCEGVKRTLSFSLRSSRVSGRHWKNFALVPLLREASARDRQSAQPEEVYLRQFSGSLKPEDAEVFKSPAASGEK

[1] = target: T2, vanilloid receptor 1 (VR1/TRPV1) of the rat species (Rattus norvegicus, UniProt O35433); experiment: FLIPR Ca2+ influx assay on rat dorsal root ganglia cells (pharmacological method I)
T2 construct: The spinal column is removed from decapitated rats; from tissue; host or cells: primary cells dissociated from rat dorsal root ganglia
T2 sequence (O35433 whole entry): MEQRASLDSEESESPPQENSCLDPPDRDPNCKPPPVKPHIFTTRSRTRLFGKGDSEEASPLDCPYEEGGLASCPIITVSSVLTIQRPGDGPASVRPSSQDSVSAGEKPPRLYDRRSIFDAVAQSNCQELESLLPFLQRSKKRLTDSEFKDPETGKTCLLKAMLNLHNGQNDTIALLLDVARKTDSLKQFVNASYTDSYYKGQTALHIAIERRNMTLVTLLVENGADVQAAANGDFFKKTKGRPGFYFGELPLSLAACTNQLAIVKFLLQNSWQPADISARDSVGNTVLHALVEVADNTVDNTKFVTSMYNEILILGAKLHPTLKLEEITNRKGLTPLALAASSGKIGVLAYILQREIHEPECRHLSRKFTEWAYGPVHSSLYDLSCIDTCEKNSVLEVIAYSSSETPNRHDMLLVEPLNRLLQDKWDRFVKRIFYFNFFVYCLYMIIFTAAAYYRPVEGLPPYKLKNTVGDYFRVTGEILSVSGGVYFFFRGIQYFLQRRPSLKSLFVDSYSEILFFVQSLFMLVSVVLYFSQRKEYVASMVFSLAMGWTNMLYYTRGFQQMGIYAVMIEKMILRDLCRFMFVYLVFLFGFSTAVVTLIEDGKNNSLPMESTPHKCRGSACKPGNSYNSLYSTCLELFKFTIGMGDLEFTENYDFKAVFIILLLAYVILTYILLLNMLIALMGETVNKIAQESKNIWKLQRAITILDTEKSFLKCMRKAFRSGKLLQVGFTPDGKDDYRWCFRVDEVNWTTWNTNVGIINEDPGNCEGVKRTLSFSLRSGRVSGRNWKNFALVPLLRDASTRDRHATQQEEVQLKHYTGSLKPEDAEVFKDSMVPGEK
In short: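 Primary rat dorsal root ganglion cells loaded with 2 μM Fluo-4, Ca2+ influx read on FLIPR as peak fluorescence. Triplicates, at least 3 independent experiments.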

[2] = read-out: inhibition in percent, IC50 (human) after pH stimulus
[3] = @ 1 μM, ne = no effect, read-out: inhibition in percent, IC50 (human) after pH stimulus
[4] = table 4, capsaicin, read-out: Ki (human) Cap.
[5] = table 4, capsaicin, read-out: Ki (rat) Cap.
[6] = Ki (rat) Cap., table 4, capsaicin
[7] = Table 2, displacement of capsaicin (100 nM), Cheng-Prusoff, read-out: Ki (human)

Sequence of VR1/TRPV1 receptor (Q8NER1 whole entry): as the sequence (Q8NER1 whole entry) above

Structure (SMILES)	Ki (vanilloid receptor (VR1); [4])	Ki [1, 5]	IC50 (VR1/TRPV1 receptor; table 4)	other results
CC(C(=O)NCc1ccc(C(F)(F)F)cc1OC1CCCCC1)c1ccc(NS(C)(=O)=O)c(F)c1 (stereo not drawn) [Example 238, N-(2-cyclohexyloxy-4-trifluoromethyl-benzyl)-2-(3-fluoro-4-methylsulfonamido-phenyl)-propionamide]	0.7 nM	0.6 nM	–	inhibition at 0.1 µM (VR1/TRPV1 receptor; [2]): 39%; inhibition at 1 µM (VR1/TRPV1 receptor; [3]): 55%
CC(C(=O)NCc1ccc(C(F)(F)F)nc1N1CCN(c2ncccc2C(F)(F)F)CC1)c1ccc(NS(C)(=O)=O)c(F)c1 (stereo not drawn) [Example 212, 2-(3-fluoro-4-methylsulfonamido-phenyl)-N-{6-trifluoromethyl-2-[4-(3-trifluoromethyl-pyridin-2-yl)-piperazin-1-yl]-pyridin-3-ylmethyl}-propionamide]	4.2 nM	3.6 nM	–	inhibition at 0.1 µM (VR1/TRPV1 receptor; [2]): 11%; inhibition at 1 µM (VR1/TRPV1 receptor; [3]): 33%
CC(C(=O)NCc1ccc(C(F)(F)F)nc1OCC1CCC1)c1ccc(NS(C)(=O)=O)c(F)c1 (stereo not drawn) [Example 101, N-(2-cyclobutylmethoxy-6-trifluoromethyl-pyridin-3-ylmethyl)-2-(3-fluoro-4-methylsulfonamido-phenyl)-propionamide]	0.3 nM	–	40.5 nM	Ki [1, 6]: 1 nM
CCOc1nc(C(F)(F)F)ccc1CNC(=O)C(C)c1ccc(NS(C)(=O)=O)c(F)c1 (stereo not drawn) [Example 163, N-(2-ethoxy-6-trifluoromethyl-pyridin-3-ylmethyl)-2-(3-fluoro-4-methylsulfonamido-phenyl)-propionamide]	12.7 nM	–	277 nM	Ki [1, 6]: 8.5 nM
CC(C(=O)NCc1ccc(C(F)(F)F)nc1OC1CCCC1)c1ccc(NS(C)(=O)=O)c(F)c1 (stereo not drawn) [Example 21, N-((2-cyclopentyloxy-6-(trifluoromethyl)pyridin-3-yl)methyl)-2-(3-fluoro-4-(methylsulfonamido)phenyl)propanamide]	–	–	–	IC50 (VR1/TRPV1 receptor; Table 2): 29 nM; Ki (vanilloid receptor (VR1); [7]): 0.9 nM; Ki ([1]; Table 2, displacement of capsaicin (100 nM), Cheng-Prusoff, read-out: Ki (rat)): 1.3 nM
CC(C(=O)NCc1ccc(C(F)(F)F)nc1N1CCN(c2ccccc2)CC1)c1ccc(NS(C)(=O)=O)c(F)c1 (stereo not drawn) [Example 109, 2-(3-fluoro-4-methylsulfonamido-phenyl)-N-[2-(4-phenyl-piperazin-1-yl)-6-trifluoromethyl-pyridin-3-ylmethyl]-propionamide]	0.7 nM	0.6 nM	30.7 nM	–
CC(C(=O)NCc1ccc(C(F)(F)F)nc1N1CCN(c2ncccc2C(F)(F)F)CC1)c1ccc(NS(C)(=O)=O)c(F)c1 (stereo not drawn) [Example 213, 2-(3-fluoro-4-methylsulfonamido-phenyl)-N-{6-trifluoromethyl-2-[4-(3-trifluoromethyl-pyridin-2-yl)-piperazin-1-yl]-pyridin-3-ylmethyl}-propionamide]	2.8 nM	2 nM	–	inhibition in percent, IC50 (human) after pH stimulus (VR1/TRPV1 receptor; @ 1 μM, ne = no effect): 37%; inhibition at 10 µM (VR1/TRPV1 receptor; [2]): 49%
CC(C(=O)NCc1ccc(C(F)(F)F)nc1N1CCC(N2CCCCC2)CC1)c1ccc(NS(C)(=O)=O)c(F)c1 (stereo not drawn) [Example 164, 2-(3-fluoro-4-methylsulfonamido-phenyl)-N-(6″-trifluoromethyl-3,4,5,6,3′,4′,5′,6′-octahydro-2H,2′H-[1,4′;1′,2″]terpyridin-3″-ylmethyl)-propionamide]	–	–	–	inhibition at 10 µM (VR1/TRPV1 receptor; [2]): 30%; inhibition at 25 µM (VR1/TRPV1 receptor; @ 25 μM, read-out: inhibition in percent, IC50 (human) after pH stimulus): 28%; inhibition at 10 µM (vanilloid receptor (VR1); CHO-K1, @ 10 μM, read-out: inhibition in percent, Ki (human) Cap.): 84%; inhibition at 10 µM ([1]; @ 10 μM, read-out: inhibition in percent, Ki (rat) Cap.): 85%
CC(C(=O)NCc1ccc(C(F)(F)F)nc1OCc1cccnc1)c1ccc(NS(C)(=O)=O)c(F)c1 (stereo not drawn) [Example 211, 2-(3-fluoro-4-methylsulfonamido-phenyl)-N-[2-(pyridin-3-ylmethoxy)-6-trifluoromethyl-pyridin-3-ylmethyl]-propionamide]	142 nM	30.3 nM	3440 nM	–
CC(C(=O)NCc1ccc(C(F)(F)F)nc1N(C)c1ccccc1)c1ccc(NS(C)(=O)=O)c(F)c1 (stereo not drawn) [Example 205, 2-(3-fluoro-4-methylsulfonamido-phenyl)-N-[2-(methyl-phenyl-amino)-6-trifluoromethyl-pyridin-3-ylmethyl]-propionamide]	0.9 nM	11.4 nM	57.4 nM	–
CCS(=O)(=O)Nc1ccc(C(C)C(=O)NCc2ccc(C(F)(F)F)nc2N2CCC(C)CC2)cc1F (stereo not drawn) [Example 287, 2-(4-ethanesulfonylamino-3-fluoro-phenyl)-N-(4-methyl-6′-trifluoromethyl-3,4,5,6-tetrahydro-2H-[1,2′]bipyridinyl-3′-ylmethyl)-propionamide]	4.4 nM	3.5 nM	189 nM	–
Cc1ccc(N2CCN(c3nc(C(F)(F)F)ccc3CNC(=O)C(C)c3ccc(NS(C)(=O)=O)c(F)c3)CC2)cc1 (stereo not drawn) [Example 219, 2-(3-fluoro-4-methylsulfonamido-phenyl)-N-[2-(4-p-tolyl-piperazin-1-yl)-6-trifluoromethyl-pyridin-3-ylmethyl]-propionamide]	3.3 nM	2.4 nM	38.3 nM	–
CC(C(=O)NCc1ccc(C(F)(F)F)nc1OCc1ccccn1)c1ccc(NS(C)(=O)=O)c(F)c1 (stereo not drawn) [Example 202, 2-(3-fluoro-4-methylsulfonamido-phenyl)-N-[2-(pyridin-2-ylmethoxy)-6-trifluoromethyl-pyridin-3-ylmethyl]-propionamide]	29.5 nM	–	–	inhibition at 0.1 µM (VR1/TRPV1 receptor; [2]): 16%; inhibition at 1 µM (VR1/TRPV1 receptor; [3]): 30%; Ki [1, 6]: 24.8 nM
CCOC(=O)C1(c2ccccc2)CCN(c2nc(C(F)(F)F)ccc2CNC(=O)C(C)c2ccc(NS(C)(=O)=O)c(F)c2)CC1 (stereo not drawn) [Example 189, 3′-{[2-(3-fluoro-4-methylsulfonamido-phenyl)-propionylamino]-methyl}-4-phenyl-6′-trifluoromethyl-3,4,5,6-tetrahydro-2H-[1,2′]bipyridinyl-4-carbonic acid ethyl ester]	–	–	166 nM	Ki (vanilloid receptor (VR1)): 4.7 nM; Ki [1, 6]: 3 nM
CC(C(=O)NCc1ccc(C(F)(F)F)nc1N1CCCC1)c1ccc(NS(C)(=O)=O)c(Cl)c1 (stereo not drawn) [Example 102, 2-(3-chloro-4-methylsulfonamido-phenyl)-N-(2-pyrrolidin-1-yl-6 trifluoromethyl-pyridin-3-ylmethyl)-propionamide]	4.2 nM	7.4 nM	–	inhibition at 10 µM (VR1/TRPV1 receptor; [2]): 18%
CC(C(=O)NCc1ccc(C(F)(F)F)nc1N1CCC2(CC1)CC(c1ccccc1)=NO2)c1ccc(NS(C)(=O)=O)c(F)c1 (stereo not drawn) [Example 252, 2-(3-fluoro-4-methylsulfonamido-phenyl)-N-[2-(3-phenyl-1-oxa-2,8-diaza-spiro[4.5]dec-2-en-8-yl)-6-trifluoromethyl-pyridin-3-ylmethyl]-propionamide]	6.1 nM	17.9 nM	289 nM	–
CC1CCC(COc2nc(C(F)(F)F)ccc2CNC(=O)C(C)c2ccc(NS(C)(=O)=O)c(F)c2)CC1 (stereo not drawn) [Example 271, 2-(3-fluoro-4-methylsulfonamido-phenyl)-N-[2-(4-methyl-cyclohexylmethoxy)-6-trifluoromethyl-pyridin-3-ylmethyl]-propionamide]	1 nM	–	44.4 nM	Ki [1, 6]: 1.1 nM
CCCCCCc1nc(C(F)(F)F)ccc1CNC(=O)C(C)c1ccc(NS(C)(=O)=O)c(F)c1 (stereo not drawn) [Example 267, 2-(3-fluoro-4-methylsulfonamido-phenyl)-N-(2-hexyl-6-trifluoromethyl-pyridin-3-ylmethyl)-propionamide]	1.6 nM	1.7 nM	24 nM	–
CC(C)Oc1nc(C(F)(F)F)ccc1CNC(=O)C(C)c1ccc(NS(C)(=O)=O)c(F)c1 (stereo not drawn) [Example 20, 2-(3-fluoro-4-(methylsulfonamido)phenyl)-N-((2-isopropoxy-6-(trifluoromethyl)pyridin-3-yl)methyl)propanamide]	–	–	–	IC50 (VR1/TRPV1 receptor; Table 2): 93 nM; Ki (vanilloid receptor (VR1); [7]): 2.1 nM; Ki ([1]; Ki (rat), Table 2, displacement of capsaicin (100 nM), Cheng-Prusoff): 5.4 nM
CC(C)COc1nc(C(F)(F)F)ccc1CNC(=O)C(C)c1ccc(NS(C)(=O)=O)c(F)c1 (stereo not drawn) [Example 95, 2-(3-fluoro-4-methylsulfonamido-phenyl)-N-(2-isobutoxy-6-trifluoromethyl-pyridin-3-ylmethyl)-propionamide]	0.5 nM	0.8 nM	52.6 nM	–
CC(C(=O)NCc1ccc(C(C)(C)C)nc1N1CCCC1)c1ccc(NS(C)(=O)=O)c(F)c1 (stereo not drawn) [Example 240, N-(6-tert-butyl-2-pyrrolidin-1-yl-pyridin-3-ylmethyl)-2-(3-fluoro-4-methansulfonylamino-phenyl)-propionamide]	1.2 nM	5.3 nM	–	inhibition at 0.1 µM (VR1/TRPV1 receptor; [2]): 12%; inhibition at 1 µM (VR1/TRPV1 receptor; [3]): 43%
CCCCCCOc1nc(C(F)(F)Cl)ccc1CNC(=O)C(C)c1ccc(NS(C)(=O)=O)c(F)c1 (stereo not drawn) [Example 180, N-[6-(chloro-difluoro-methyl)-2-hexyloxy-pyridin-3-ylmethyl]-2-(3-fluoro-4-methylsulfonamido-phenyl)-propionamide]	0.8 nM	0.3 nM	22.8 nM	–
CC(C(=O)NCc1ccc(C(F)(F)F)nc1N1CCN(c2ccc(C(F)(F)F)cc2)CC1)c1ccc(NS(C)(=O)=O)c(F)c1 (stereo not drawn) [Example 222, 2-(3-fluoro-4-methylsulfonamido-phenyl)-N-{6-trifluoromethyl-2-[4-(4-trifluoromethyl-phenyl)-piperazin-1-yl]-pyridin-3-ylmethyl}propionamide]	3.4 nM	2.4 nM	39.2 nM	–

Source: US8710233B2 (Gruenenthal GmbH, priority 2005, dated 2014)
